# According to the NIST ThermoML archive (doi:10.1016/j.fluid.2018.02.015):
# Numbers after ± are expanded uncertainties.
# What was measured:
# [1] = refractive index (Na D-line) (dimensionless); conditions: 99.9 kPa, Liquid, Standard Abbe refractometry
# [2] = 99.9 kPa, Liquid, Vibrating tube method
refractive index ([1]; 293.15 K),refractive index ([1]; 298.15 K),mass density ([2]; 293.15 K) [kg/m3],mass density ([2]; 294.15 K) [kg/m3],mass density ([2]; 295.15 K) [kg/m3],mass density ([2]; 296.15 K) [kg/m3],mass density ([2]; 297.15 K) [kg/m3],mass density ([2]; 298.15 K) [kg/m3],mass density ([2]; 299.62 K) [kg/m3],mass density ([2]; 299.75 K) [kg/m3],Compound
1.41196 ± 0.0005,1.40964 ± 0.0005,729.762 ± 0.33,728.496 ± 0.29,727.738 ± 0.26,726.983 ± 0.26,726.227 ± 0.26,725.467 ± 0.26,724.355 ± 0.26,–,CCCCCCCCCC [decane]
1.40595 ± 0.00049,1.40329 ± 0.00049,717.883 ± 0.33,716.601 ± 0.29,715.824 ± 0.26,715.045 ± 0.26,714.268 ± 0.25,713.689 ± 0.24,–,–,CCCCCCCCC [nonane]
1.41726 ± 0.00049,1.41502 ± 0.00049,739.96 ± 0.29,–,737.96 ± 0.27,–,736.48 ± 0.25,735.73 ± 0.25,–,734.56 ± 0.25,CCCCCCCCCCC [undecane]
